This is an account of results in publication PMC8058764 (Chemical Research in Toxicology, 2021).

One data set relates to neonatal pooled HLMs. In words: Inhibition of DHEA-S metabolism. The data set is classed as biochemical, human. The settings on record: DHEA-S 50 μM, HLMs 0.05 mg/mL, lopinavir 8 μM without or with ritonavir 0.5 μM, 30 min.
The subject of a further data set is CYP17A1. The note with it: NCI-H295R cells; cited from earlier work.
The test system of another data set is CYP21A2. The settings on record: NCI-H295R cells; cited from earlier work.
A short description of data set [1]: Lopinavir intrinsic clearance by neonatal human liver microsomes. The data set is classed as in vitro ADME. The note with it: for mean lopinavir percent loss: lopinavir 1 μM, 30 min.
The nature of data set [2]: Lopinavir intrinsic clearance by adult human liver microsomes. The data set is classed as in vitro ADME. (In general: Liver microsomes are vesicles of endoplasmic reticulum, rich in cytochrome P450 enzymes.)
Setting [3] is: human, pooled neonatal human liver microsomes, pH 7.4.
Where [4] appears, read: both, human, pooled adult human liver microsomes, pH 7.4.

A word on the half-life: it is the time in which the quantity being followed falls by half. The low end stands for rapid decline, the high end for slow decline. The term microsomal CLint denotes a measure of how fast metabolising enzymes remove a compound, apart from limits set by blood flow. A high value points to rapid turnover. Take `Cc1cccc(C)c1OCC(=O)N[C@@H](Cc1ccccc1)[C@@H](O)C[C@H](Cc1ccccc1)NC(=O)[C@H](C(C)C)N1CCCNC1=O` [lopinavir]: the “formation rate of 16α-hydroxy DHEA-S in neonatal HLMs” value in the data set on neonatal pooled HLMs is recorded as 1.19 nmol/min/mg protein. Besides, the “inhibition of CYP17A1” value with CYP17A1 is recorded as “moderate inhibition”. For the same compound, the “inhibition of CYP21A2” value with CYP21A2 is “moderate inhibition”. The figures for the half-life at 1 μM in data set [1] (setting [3]) and in data set [2] (setting [4]) were 52.1 min and 7.18 min, respectively. In addition, the microsomal CLint at 1 μM in data set [1] (setting [3]) came out at 133 µL/min/mg; in data set [2] (setting [4]), 4830 µL/min/mg. Besides, the “mean lopinavir percent loss” value in data set [1] (neonatal HLMs 0.02 mg/mL) is 21%; in data set [1] (neonatal HLMs 0.1 mg/mL), 32%; in data set [2] (adult HLMs 0.02 mg/mL, lopinavir 1 μM, 30 min) it was “about 94%”. The “lopinavir loss in presence of ritonavir” value in data set [2] (adult HLMs 0.02 mg/mL, lopinavir 1 μM, ritonavir 62.5 nM) is “less than 20%”.
